Test results published in patent publication US20100047294A1, “SEMI-FINISHED PRODUCT IN THE MANUFACTURE OF A COMPOSITION FOR SKIN OR HAIR CARE” (OY GRANULA AB LTD, priority 2006, published 2010).
Where two headings read alike, the source gives them in different places.

Experiments:
[1] = Ability to capture free radicals (statements in words)
[2] = extracts from knot wood of the tree trunk; compared with Trolox; lower value = better capture; cited from earlier work

Compound	Capture of peroxyl radicals in vitro [2]	other results
COc1cc(C[C@H]2COC(=O)C2C(=O)c2ccc(O)c(OC)c2)ccc1O (some centres unmarked) [7-oxomatairesinol]	–	ability to capture free radicals, in words [1]: even better than that of hydroxymatairesinol; ability to capture free radicals, in words ([1]; listed as Oxomatairesinol): comparable to that of hydroxymatairesinol or even better; ability to capture free radicals, in words ([1]; listed as oxomatairesinol): relatively good in capturing the free radicals
COc1cc([C@H]2c3cc(O)c(OC)cc3C[C@@H](CO)[C@@H]2CO)ccc1O [cyclolariciresinol]	118 g/mol	–
COc1cc(C[C@H]2C(=O)OC[C@@H]2[C@H](O)c2ccc(O)c(OC)c2)ccc1O [hydroxymatairesinol]	179 g/mol	ability to capture free radicals, in words [1]: relatively good in capturing the free radicals
COc1cc(C[C@H]2CO[C@H](c3ccc(O)c(OC)c3)[C@H]2CO)ccc1O [lariciresinol]	370 g/mol	–
COc1cc(C[C@H]2COC(=O)[C@@H]2Cc2ccc(O)c(OC)c2)ccc1O [matairesinol]	345 g/mol	–
Oc1ccc([C@H]2Oc3c(ccc(O)c3O)[C@@H](O)[C@H]2O)cc1O [melacasidine]	50 g/mol	–
COc1cc(CC2COC(=O)C2(O)Cc2ccc(O)c(OC)c2)ccc1O (centres unmarked) [nortrachelogenin]	169 g/mol	–
COc1cc(C[C@@H](CO)[C@H](CO)Cc2ccc(O)c(OC)c2)ccc1O [secoisolariciresinol]	–	ability to capture free radicals, in words [1]: relatively good in capturing the free radicals
Oc1ccc([C@H]2Oc3c(ccc(O)c3O)[C@@H](O)[C@H]2O)cc1 [teracasidine]	128 g/mol	–
Cc1c(C)c2c(c(C)c1O)CCC(C)(C(=O)O)O2 (centres unmarked) [trolox, reference compound]	125 g/mol	–
pinoresinol	129 g/mol	–
